≈ marks a conversion by molar mass, not a printed value.
Columns and labels:
Type in all cases: cell-based
[1] = test system: CHO-K1 cells; assay: In-vitro micronucleus assay
Description: Genetic toxicology studies were performed on the compounds of the present disclosure to assess their ability to cause DNA damage. The in-vitro micronucleus assay measured the concentration (μM) of the compound at which micronuclei formation occurred. A micronuclei formation at lower concentration indicates more genetic damage or genotoxicity.
Micronucleus formation is a hallmark of genotoxicity, and the micronucleus assay is an important component of genotoxicity screening. Micronuclei are chromatin-containing bodies that represent fragments or even whole chromosomes that were not incorporated into a daughter cell nucleus at mitosis. The purpose of the assay is to detect agents that induce chromosome damage leading to the induction of micronuclei in interphase cells. The in vitro micronucleus assay was conducted in CHO-K1 cells according to the procedure described by Diaz, D et al [Mutat Res. 630(1-2):1-13. […] The formation of the micronucleus is identified by image-based high content analysis from binucleated cells.

[2] = test system: Enterococcus faecalis ATCC 29212; assay: Minimum Inhibitory Concentration (MIC) in LB media; conditions: Enterococcus faecalis, ATCC29212, read-out: Minimum Inhibitory Concentration E. faecalis ATCC 29212
Source text: (§1) The compounds of Formula Ia and Formula Ib are of interest due to their potent antibacterial effects. The ability of the compounds disclosed herein to achieve an antibacterial effect may be evaluated with regard to their ability to inhibit the growth of bacterial species like Escherichia coli ATCC 25922, Staphylococcus aureus ATCC 29213, Klebsiella pneumoniae ATCC 13883, Acinetobacter baumannii ATCC 19606, Pseudomonas aeruginosa ATCC 27853 and Enterococcus faecalis ATCC 29212 using an assay based on the following Minimum Inhibitory Concentration (MIC) protocol:
(§2) The test bacteria were grown in Luria Bertani Broth (HIMEDIA M1245), 25 g of the powder was dissolved in 1000 ml distilled water and sterilized by autoclaving at 15 lbs pressure (121° C.) for 20 minutes. The medium sterility was checked by incubating at 37° C. for a period of 48 h. Bacterial cultures that were stored as glycerol stocks at −80° C. were subcultured on LB agar plates to obtain isolated colonies. A single colony of each strain was cultured in LB broth. The cultures were incubated at 37° C., 200 rpm till they reached an optical density (OD at 600 nm) of 0.8 to 1. This log phase culture was diluted in LB broth to a cell number of 5-8*10^5 CFU/mL to be used as inoculum for MIC experiments. Test compounds were dissolved in dimethyl sulfoxide (DMSO) to a stock concentration of 4 mg/ml. A two-fold dilution series of this DMSO stock was prepared in a 96 well V bottom microtitre plate from rows A to H. A 3 μL volume of these dilutions are transferred to a 96-well flat bottom microtitre assay plate. Controls to monitor the effects of DMSO and media sterility were included. Each well was inoculated with 150 μL of the above diluted culture. The plates were incubated at 37° C. overnight in a humidified incubator. The following morning, the plates were read using a Spectrophotometer at 600 nm wavelength. […] The antibacterial activity (MIC) determined against representative gram-positive (S. aureus, E. faecalis) and gram-negative (E. coli, Aeruginosa, K. pneumoniae, and A. baumannii) pathogen are reported Table 1.

[3] = test system: Klebsiella pneumoniae ATCC 13883; assay: Minimum Inhibitory Concentration (MIC) in LB media; conditions: Klebsiella pneumoniae, ATCC13883, read-out: Minimum Inhibitory Concentration K. pneumoniae ATCC 13883
Source text: as §1, §2

[4] = test system: Acinetobacter baumannii ATCC 19606; assay: Minimum Inhibitory Concentration (MIC) in LB media; conditions: Acinetobacter baumannii, ATCC19606
Source text: as §1, §2

[5] = test system: Pseudomonas aeruginosa ATCC 27853; assay: Minimum Inhibitory Concentration (MIC) in LB media; conditions: Pseudomonas aeruginosa, ATCC27853
Source text: as §1, §2

[6] = test system: Escherichia coli ATCC 25922; assay: Minimum Inhibitory Concentration (MIC) in LB media; conditions: Escherichia coli, ATCC25922, read-out: Minimum Inhibitory Concentration E. coli ATCC 25922
Source text: as §1, §2

[7] = test system: Staphylococcus aureus ATCC 29213; assay: Minimum Inhibitory Concentration (MIC) in LB media; conditions: Staphylococcus aureus, ATCC29213, read-out: Minimum Inhibitory Concentration S. aureus ATCC 29213
Source text: as §1, §2

[8] = target: hERG potassium channel (Homo sapiens (Human), UniProt Q12809); assay: hERG inhibition assay (Qpatch HTX automated electrophysiology); conditions: CHO cell line expressing hERG, whole-cell patch clamp
Description: Electrophysiological recordings were made from a Chinese Hamster Ovary cell line stably expressing the full-length hERG potassium channel. Single cell ionic currents were measured in whole-cell patch clamp configuration at room temperature (21-23° C.) using the Qpatch HTX platform (Sophion). Intracellular solution contained (mM): 120 KF, 20 KCl, 10 EGTA, 10 HEPES and was buffered to pH 7.3. […] Cells were clamped at a holding potential of −80 mV. Cells were stepped to +20 mV for 2 s then −40 mV for 3 s before returning to the holding potential. […] Compounds were then incubated for 2 minutes prior to a second measurement of ion channel current using an identical pulse train.

[9] = test system: Citrobacter freundii; assay: MIC90 determination, clinical strains (CLSI); conditions: N=19
[10] = test system: Serratia marcescens; assay: MIC90 determination, clinical strains (CLSI); conditions: N=15
[11] = test system: Providencia rettgeri, P. stuartii; assay: MIC90 determination, clinical strains (CLSI); conditions: N=12
[12] = test system: Pseudomonas aeruginosa; assay: MIC90 determination, clinical strains (CLSI); conditions: N=34
[13] = test system: Acinetobacter baumannii; assay: MIC90 determination, clinical strains (CLSI); conditions: N=38
[14] = test system: Escherichia coli; assay: MIC90 determination, clinical strains (CLSI); conditions: N=38
[15] = test system: Klebsiella aerogenes, K. oxytoca; assay: MIC90 determination, clinical strains (CLSI); conditions: N=17
[16] = test system: Morganella morganii; assay: MIC90 determination, clinical strains (CLSI); conditions: N=11
[17] = test system: Enterobacter cloacae; assay: MIC90 determination, clinical strains (CLSI); conditions: N=26
[18] = test system: Klebsiella pneumoniae; assay: MIC90 determination, clinical strains (CLSI); conditions: N=86
[19] = test system: Proteus mirabilis; assay: MIC90 determination, clinical strains (CLSI); conditions: N=12

Chain of hERG potassium channel (Q12809 whole entry): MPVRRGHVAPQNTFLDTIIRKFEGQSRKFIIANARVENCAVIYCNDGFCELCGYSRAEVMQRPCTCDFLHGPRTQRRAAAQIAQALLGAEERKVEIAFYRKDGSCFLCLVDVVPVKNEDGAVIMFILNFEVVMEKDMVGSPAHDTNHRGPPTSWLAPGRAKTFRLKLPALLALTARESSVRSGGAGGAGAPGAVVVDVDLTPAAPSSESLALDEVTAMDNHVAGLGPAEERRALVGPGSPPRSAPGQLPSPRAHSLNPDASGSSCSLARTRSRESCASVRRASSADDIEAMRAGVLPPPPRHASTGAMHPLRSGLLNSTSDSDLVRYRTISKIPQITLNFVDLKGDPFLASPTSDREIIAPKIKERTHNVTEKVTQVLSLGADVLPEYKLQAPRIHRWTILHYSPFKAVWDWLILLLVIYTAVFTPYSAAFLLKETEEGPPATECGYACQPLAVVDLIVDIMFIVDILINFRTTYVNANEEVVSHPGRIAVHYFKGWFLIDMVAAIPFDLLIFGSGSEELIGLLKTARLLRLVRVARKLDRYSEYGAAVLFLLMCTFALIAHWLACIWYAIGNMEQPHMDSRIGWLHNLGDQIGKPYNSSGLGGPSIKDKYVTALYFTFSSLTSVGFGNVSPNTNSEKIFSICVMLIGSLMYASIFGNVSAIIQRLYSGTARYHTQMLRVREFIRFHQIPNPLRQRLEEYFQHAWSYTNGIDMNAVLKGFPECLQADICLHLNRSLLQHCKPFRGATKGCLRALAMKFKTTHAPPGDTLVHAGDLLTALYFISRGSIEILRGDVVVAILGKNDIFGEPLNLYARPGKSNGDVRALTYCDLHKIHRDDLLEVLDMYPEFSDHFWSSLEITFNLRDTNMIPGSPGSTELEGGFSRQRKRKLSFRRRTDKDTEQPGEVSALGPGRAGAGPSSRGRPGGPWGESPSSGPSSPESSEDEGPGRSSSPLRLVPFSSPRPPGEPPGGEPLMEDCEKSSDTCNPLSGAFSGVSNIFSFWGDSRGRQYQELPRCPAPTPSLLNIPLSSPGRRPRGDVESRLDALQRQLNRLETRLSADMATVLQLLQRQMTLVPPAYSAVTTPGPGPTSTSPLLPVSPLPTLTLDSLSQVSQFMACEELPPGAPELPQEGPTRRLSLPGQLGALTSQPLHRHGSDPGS

SMILES | genotoxicity risk (in words) [1] | % (in-vitro micronucleus assay) ([1]; Chinese hamster) [%] | In vitro micronucleus forming concentration ([1]; Chinese hamster) [µM] | MIC [2] [µg/mL] | MIC [3] [µg/mL] | MIC [4] [µg/mL] | MIC [5] [µg/mL] | MIC [6] [µg/mL] | MIC [7] [µg/mL] | IC50 [8] [µM] | other results
CN1C(=O)CNc2cc(F)c(OCCNC[C@H]3CN(c4cnc5c(n4)NC(=O)CS5)C(=O)O3)nc21 [Compound 8, (S)-5-(((2-((7-fluoro-4-methyl-3-oxo-1,2,3,4-tetrahydropyrido [2,3-b]pyrazin-6-yl)oxy)ethyl)amino)methyl)-3-(3-oxo-3,4-dihydro-2H-pyrazino[2,3-b][1,4]thiazin-6-yl)oxazolidin-2-one] | completely devoid of any genotoxicity risk | 0.5 | >1000 | 0.125 (≈ 0.248 µM) | 0.06 (≈ 0.119 µM) | 0.06 (≈ 0.119 µM) | 1 (≈ 1.98 µM) | 0.03 (≈ 0.0595 µM) | < 0.015 | > 300 | 
CN1C(=O)CNc2ccc(OCCNC[C@@H]3CN(c4cnc5c(n4)NC(=O)CS5)C(=O)O3)nc21 [Compound 5, (R)-5-(((2-((4-methyl-3-oxo-1,2,3,4-tetrahydropyrido[2,3-b]pyrazin-6-yl)oxy)ethyl)amino)methyl)-3-(3-oxo-3,4-dihydro-2H-pyrazino[2,3-b][1,4]thiazin-6-yl)oxazolidin-2-one] | completely devoid of any genotoxicity risk | 0.5 | >1000 | 0.125 (≈ 0.257 µM) | 0.06 (≈ 0.123 µM) | 0.06 (≈ 0.123 µM) | 1 (≈ 2.06 µM) | 0.03 (≈ 0.0617 µM) | < 0.015 | > 300 | micronucleus formation (in words) [1]: did not induce micronucleus formation
O=C(O)c1cn(C2CC2)c2cc(N3CCNCC3)c(F)cc2c1=O [Ciprofloxacin, reference compound] |  |  |  | 0.4 (≈ 1.21 µM) | 0.05 (≈ 0.151 µM) | 0.4 (≈ 1.21 µM) | 0.1 (≈ 0.302 µM) | 0.012 (≈ 0.0362 µM) | 0.4 (≈ 1.21 µM) |  | 
CO[C@@]12[C@H](COC(N)=O)C3=C(C(=O)C(C)=C(N)C3=O)N1C[C@@H]1N[C@@H]12 [Mitomycin C, reference compound] |  |  |  |  |  |  |  |  |  |  | % (in-vitro micronucleus assay) ([1]; CHO-K1 cells): 1.98%; In vitro micronucleus forming concentration ([1]; CHO-K1 cells): 0.300 µM
CN1C(=O)CNc2cc(F)c(OCCNC[C@@H]3CN(c4cnc5c(n4)NC(=O)CS5)C(=O)O3)nc21 [Compound 7, (R)-5-(((2-((7-fluoro-4-methyl-3-oxo-1,2,3,4-tetrahydropyrido[2,3-b]pyrazin-6-yl)oxy)ethyl)amino)methyl)-3-(3-oxo-3,4-dihydro-2H-pyrazino[2,3-b][1,4]thiazin-6-yl)oxazolidin-2-one] | completely devoid of any genotoxicity risk | 0.41 | >1000 | 0.06 (≈ 0.119 µM) | 0.06 (≈ 0.119 µM) | 0.03 (≈ 0.0595 µM) | 1 (≈ 1.98 µM) | 0.03 (≈ 0.0595 µM) | < 0.015 | > 300 | 
C[C@@H](O)[C@H]1C(=O)N2C(C(=O)O)=C(S[C@@H]3CN[C@H](C(=O)N(C)C)C3)[C@H](C)[C@H]12 [Meropenem, reference compound] |  |  |  |  |  |  |  |  |  |  | MIC 90 Citrobacter freundii [9]: 8 µg/mL (≈ 20.9 µM); MIC 90 Serratia marcescens [10]: 16 µg/mL (≈ 41.7 µM); MIC 90 Providencia rettgeri, P. stuartii [11]: 4 µg/mL (≈ 10.4 µM); MIC 90 Pseudomonas aeruginosa [12]: 16 µg/mL (≈ 41.7 µM); MIC 90 Acinetobacter baumannii [13]: >8 µg/mL; MIC 90 Escherichia coli [14]: 2 µg/mL (≈ 5.22 µM); MIC 90 Klebsiella aerogenes, K. oxytoca [15]: 16 µg/mL (≈ 41.7 µM); MIC 90 Morganella morganii [16]: 0.12 µg/mL (≈ 0.313 µM); MIC 90 Enterobacter cloacae [17]: 16 µg/mL (≈ 41.7 µM); MIC 90 Klebsiella pneumoniae [18]: 16 µg/mL (≈ 41.7 µM); MIC 90 Proteus mirabilis [19]: 1 µg/mL (≈ 2.61 µM)
CN1C(=O)CNc2ccc(OCCNC[C@H]3CN(c4cnc5c(n4)NC(=O)CS5)C(=O)O3)nc21 [Compound 6, (S)-5-(((2-((4-methyl-3-oxo-1,2,3,4-tetrahydropyrido[2,3-b]pyrazin-6-yl)oxy)ethyl)amino)methyl)-3-(3-oxo-3,4-dihydro-2H-pyrazino[2,3-b][1,4]thiazin-6-yl)oxazolidin-2-one] | completely devoid of any genotoxicity risk | 0.4 | >1000 | 0.06 (≈ 0.123 µM) | 0.06 (≈ 0.123 µM) | 0.06 (≈ 0.123 µM) | 0.5 (≈ 1.03 µM) | 0.06 (≈ 0.123 µM) | < 0.015 | > 300 | micronucleus formation (in words) [1]: did not induce micronucleus formation
[2H]C([2H])([2H])N1C(=O)CNc2ccc(OCCNCC3CN(c4cnc5c(n4)NC(=O)CS5)C(=O)O3)nc21 (stereo in doubt) [Compound 9, (R)-5-(((2-((4-(methyl-d3)-3-oxo-1,2,3,4-tetrahydropyrido[2,3-b]pyrazin-6-yl)oxy)ethyl)amino)methyl)-3-(3-oxo-3,4-dihydro-2H-pyrazino[2,3-b][1,4]thiazin-6-yl) oxazolidin-2-one] | completely devoid of any genotoxicity risk | 0.51 | >1000 | 0.03 (≈ 0.0613 µM) | 0.06 (≈ 0.123 µM) | 0.03 (≈ 0.0613 µM) | 1 (≈ 2.04 µM) | 0.06 (≈ 0.123 µM) | < 0.015 | 141 | 

From patent US20250136618A1, “ANTIBIOTIC PYRAZINOTHIAZINE DERIVATIVES AND PROCESS OF PREPARATION THEREOF” (Bugworks Research India PVT Ltd, priority 2021, published 2025)
